pIC50: −log10 of the molar value. Where only a bound is given, the exact number is not on record here.

Assay [1] has as its target T1, Prostaglandin G/H synthase 1 (Ovis aries, UniProt P05979).
T1 sequence (P05979 whole entry): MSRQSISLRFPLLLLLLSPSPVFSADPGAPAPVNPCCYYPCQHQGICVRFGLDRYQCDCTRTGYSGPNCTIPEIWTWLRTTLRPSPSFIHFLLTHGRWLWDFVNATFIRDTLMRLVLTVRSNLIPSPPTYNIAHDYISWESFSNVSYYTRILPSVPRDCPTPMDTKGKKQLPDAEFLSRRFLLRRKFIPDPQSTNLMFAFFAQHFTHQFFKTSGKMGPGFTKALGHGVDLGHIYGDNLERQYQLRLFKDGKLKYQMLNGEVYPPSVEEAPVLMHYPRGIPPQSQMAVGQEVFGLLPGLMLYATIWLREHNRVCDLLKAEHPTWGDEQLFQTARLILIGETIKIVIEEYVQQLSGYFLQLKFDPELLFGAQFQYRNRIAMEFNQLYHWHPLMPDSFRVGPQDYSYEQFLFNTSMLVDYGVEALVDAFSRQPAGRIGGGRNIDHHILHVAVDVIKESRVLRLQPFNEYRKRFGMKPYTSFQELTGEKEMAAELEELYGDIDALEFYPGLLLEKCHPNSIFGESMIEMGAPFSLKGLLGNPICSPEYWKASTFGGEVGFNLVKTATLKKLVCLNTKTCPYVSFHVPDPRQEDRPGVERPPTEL
As to the kind of experiment: Inhibition of ovine COX1 by enzyme immunoassay.

Assay [2] concerns the target T2, Prostaglandin G/H synthase 2 (Ovis aries, UniProt P79208).
T2 sequence (P79208 whole entry): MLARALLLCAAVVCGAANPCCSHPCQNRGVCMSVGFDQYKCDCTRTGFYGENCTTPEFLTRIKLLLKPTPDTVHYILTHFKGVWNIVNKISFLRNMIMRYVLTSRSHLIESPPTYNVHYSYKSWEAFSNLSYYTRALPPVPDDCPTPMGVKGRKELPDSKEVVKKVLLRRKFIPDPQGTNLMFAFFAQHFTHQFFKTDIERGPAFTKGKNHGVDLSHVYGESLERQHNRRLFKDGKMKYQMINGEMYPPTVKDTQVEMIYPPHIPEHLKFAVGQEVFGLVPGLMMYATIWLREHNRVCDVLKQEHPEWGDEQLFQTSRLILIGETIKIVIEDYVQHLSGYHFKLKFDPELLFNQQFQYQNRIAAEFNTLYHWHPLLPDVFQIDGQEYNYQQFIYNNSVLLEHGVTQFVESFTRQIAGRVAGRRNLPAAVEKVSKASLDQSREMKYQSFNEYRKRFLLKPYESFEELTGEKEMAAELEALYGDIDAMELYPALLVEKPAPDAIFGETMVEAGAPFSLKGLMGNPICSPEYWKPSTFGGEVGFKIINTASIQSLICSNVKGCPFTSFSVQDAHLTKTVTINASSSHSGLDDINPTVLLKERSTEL
As to the kind of experiment: Inhibition of ovine COX2 by enzyme immunoassay.

Another assay is filed under the species Ovis aries. As to the kind of experiment: Selectivity index, ratio of IC50 for ovine COX1 to IC50 for ovine COX2.

Usually pIC50 stands for the IC50 on a negative log10 scale, so that one unit is a factor of ten. Lower therefore signals a large IC50. Regarding `CS(=O)(=O)Nc1ccc(C2=C(c3ccccc3)C(=O)OC2)cc1`, the results for the pIC50 in assay [1] and in assay [2] were 4.50 and 5.77, respectively. Further, in the assay filed under Ovis aries, the COX1/COX2 IC50 selectivity index turned out to be 18.5.

Consider `Cc1ccc(C2=C(c3ccc(NS(C)(=O)=O)cc3)COC2=O)cc1`, for which the pIC50 in assay [1] was < 4.00; in assay [2] it was 6.05. Moreover, the COX1/COX2 IC50 selectivity index in the assay listed under Ovis aries is > 111.

Regarding `CS(=O)(=O)Nc1ccc(C2=C(c3ccc(F)cc3)C(=O)OC2)cc1`, the pIC50 was 5.00 in assay [1] and 5.49 in assay [2]. In addition, the COX1/COX2 IC50 selectivity index in the assay filed under Ovis aries is 3.1.

For `CS(=O)(=O)Nc1ccc(C2=C(c3ccc(Cl)cc3)C(=O)OC2)cc1`, the pIC50 in assay [1] was 4.50; in assay [2], 6.10. Also, in the assay listed under Ovis aries, the COX1/COX2 IC50 selectivity index was 39.4.

For `CS(=O)(=O)Nc1ccc(C2=C(c3ccc(Br)cc3)C(=O)OC2)cc1`, the negative-log IC50 (pIC50) is 4.45 in assay [1] and 5.49 in assay [2]. Further, the COX1/COX2 IC50 selectivity index in the assay listed under Ovis aries is 11.1.

With `COc1ccc(C2=C(c3ccc(NS(C)(=O)=O)cc3)COC2=O)cc1`, the figures for the pIC50 in assay [1] and in assay [2] were < 4.00 and 4.50, respectively. The COX1/COX2 IC50 selectivity index in the assay filed under Ovis aries is > 31.

Source of the values: ChEMBL document CHEMBL1144527 (Bioorg Med Chem, 2007).
